Experimental data reported in patent US7355074B2, “Compounds having aromatic rings and side-chain amide-functionality and a method for transporting monovalent anions across biological membranes using the same” (The University of Maryland, priority 2003, dated 2008).

Tests used:
[1] = test system: HEK-293 cells; assay: patch-clamp recordings in whole-cell configuration; type: cell-based
From the text: FIG. 11 illustrates voltage clamp recordings in whole cell configuration (HEK-293 cells). (A) Current across membrane after application of calixarene tetrabutylamide 2 at different voltages. From bottom to top, trace denotes currents at −120, −80, −40, 0, 40, 80 and 120 mV, respectively, with saline physiological buffer being used (B) Current across membrane in a sodium glutamate isosmotic-buffer at different voltages. The potential was varied over a range of −120 through +120 mV, with a 40 mV step. (C) Current across membrane in Na2SO4 isosmotic buffer at different voltages. The potential was varied over a range of −120 through +120 mV, with a 40 mV steps. (D) Current across the membrane at +120 mV in application/wash cycle traces from bottom to top denote current in absence of 2, current after first application of 2 (a), following by […] lavage, second application (b), and third application (c). Trace on top denotes current after lavage without application of 2. Baselines of the first and last traces shifted for clarity, saline physiological buffer used.
Electrophysiological Recordings. Patch-Clamp Experiments. HEK 293 cells, plated in […] dishes containing 10 mL of the growth media were maintained at 37° C. with 5% CO2 in the incubator. Growth medium for HEK 293 cells was minimum essential medium supplemented with 10% fetal bovine serum, 100 U mL penicillin and 100 μg/mL streptomycin. Electrophysiological recordings were performed in the whole-cell configuration of the patch-clamp technique using a DAGAN 8900 amplifier (Dagan Corp., Minneapolis, Minn.). The patch electrodes, pulled from borosilicate class capillaries, had resistance of 3-4 MΩ when filled with internal solution containing (in mM): CsCl 110: tetraethylammonium chloride, 20; MgATP. 5:EGTA. 14: HEPES, 20 and titrated to pH 7.4 with CsOH. Approximately 90% of electrode resistance was compensated electronically, so that effective series resistance was less than 1 MΩ. HEK cells were used for experiments 2 to 4 days after plating the cells on the cover sips. Generation of the voltage-clamp protocols and data acquisition were carried out using PCLAMP software (Axon instruments, Inc., Burlingame, Calif.). Sampling frequency was 0.5-2.0 kHz, and current signals were filtered at […] before digitization and storage. All experiments were performed at room temperature (23-25° C.). […] Cells plated on plastic cover slips 915 mm round thermanox, Nunc, Inc., Napierville, Ill.) were transferred to an experimental chamber mounted on the stage of an inverted microscope (Diaphot, Nikon, Nagano, Japan) and were bathed in a solution containing (in mM):NaCl, 137:CaCl2, 2; KCl. 5.4; HEPES, 10; glucose, 10:glucose, 10; MgCl2, 1 (pH 7.4 adjusted with NaOH). The experimental chamber was constantly perfused at a rate of about 1 mL/min with a control bathing solution. In solutions buffered on the cell under recording KCl was omitted and in some experiments NaCl was replaced by isoosmotic amounts of Na2SO4 or Na glutamate. Servo-controlled miniature solenoid valves were used for rapid switching between control and test solutions (delay in solution change was <20 ms). Compound 2 was dissolved in DMSO, and DMSO was added in an equal amount to the control and test solutions.

[2] = pH-stat fluorescent transport assay with oligophenoxyacetamides (HPTS-loaded liposomes); type: biochemical
Description: FIGS. 1A and 1B are derived from of pH-stat fluorescent assays with oligophenoxyacetamide compounds 1-6 described herein. Suspensions of EYPC LUVs containing the pH sensitive dye pyranine (ex 405 nm and 460 nm em 510 nm) in a phosphate buffer were used (0.5 mM of lipid, 10 mM NanH3-nPO4 n=1, 2, pH 6.4 100 mM NaCl inside and outside) (A) illustrates initial pseudo-first order rate constants in the presence of 5 μm of ionophores 1-6 (1 mol % injection of 20 μl of 0.5 mM DMSO solution of 1-6 into 1.9 mL of vesicular suspension was followed by injection of 21 μl of 0.5 M NaOH and final lysis of liposomes with Triton X-100; (B) illustrates initial pseudo-first order rate constants assessed for various concentrations of oligomeric ionophores 2-6. The same experimental protocol as in (A) was used. Legend for traces denotes use of oligocompounds 2, 3, 4, 5, 6.
Liposome Preparation for Fluorimetric Assays. Egg yolk L-α-phosphatidylcholine (EYPC ethanol solution, […], 79 μmol) was dissolved in a CHCl3/MeOH mixture, the solution was evaporated under reduced pressure and the resulting thin film was dried under high vacuum for 2 h. The lipid film was hydrated in 1.2 mL of phosphate buffer (10 mM sodium phosphate, pH=6.4, 75-100 mM MnX, M=N^+, K^+, X=Cl^−, SO4^2−, n=1,2) containing 10 μM HPTS (pyranine, 8-hydroxypyrene-1,3,6-trisulfonic acid trisodium salt) for 40 min. During hydration, the suspension was submitted to 5 freeze-thaw cycle (liquid nitrogen, water at rt). The large multilamellar liposome suspension (1 mL) was submitted to high-pressure extrusion at rt (21 extrusions through a 0.1 μm polycarbonate membrane afforded a suspension of LUVs with an average diameter of 100 nm). The LUV suspension was separated from extravesicular dye by size exclusion chromatography (SEC) (stationary phase: Sephadex G-10, mobile phase: phosphate buffer) and diluted with the same phosphate buffer to give a stock solution with a lipid concentration of 11 mM (assuming 100% of lipid was incorporated into liposomes).
pH-state transport assays. Typically, 100 μL of HPTS-loaded vesicles (stock solution) was suspended in 1.9 mL of the corresponding buffer and placed into a fluorimetric cell. The emission of HPTS at 510 nm was monitored with excitation wavelengths at 403 and 460 nm simultaneously. During the experiment, 20 μL of a 0-10 mM DMSO solution of the compounds of interest was added (through an injection port), followed by injection of 21 μL of 0.5 M aqueous NaOH. […] Maximal possible changes in dye emission were obtained at the end of each experiment by lysis of the liposomes with detergent (40 μL of 5% aqueous Triton X100). The final transport trace was obtained as a ratio of the emission intensities monitored at 460 and 403 nm and normalized to 100% of transport. Pseudo-first order rate constants were calculated from slopes of the plot of In([H^+ins]−[H^+out]) versus time, here [H^+ins] and [H^+out] are the intravesicular and extravesicular proton concentrations, respectively. The [H^+out] was assumed to remain constant over the course of the experiment, while [H^+ins] values were calculated for each point from the HPTS emission intensities according to the calibration equation pH=1.1684·log(Io/Il)+6.9807, where Io is the emission intensity with excitation at 460 nm and Il is emission intensity with excitation at 403 nm. The calibration was performed by measuring the HPTS emission intensities and the pH values of a […] HPTS solution in 10 mM phosphate buffer containing 100 mM NaCl (see FIG. s3). The absolute values for rate constants varied depending on the age of the vesicular solution and the actual stock solution of liposomes used.

| Compound | lavage time after which the current returned to the baseline ([1]; +120 mV) | cells that responded at +80 mV ([1]; NaCl buffer) | damage to the cell membrane ([1]; application/wash cycle) | holding potential at which current across the cell membrane was caused ([1]; extracellular application, NaCl buffer) | current in isosmotic Na glutamate or Na2SO4 buffer ([1]; holding potentials between −120 and +120 mV) | relative transport activity within the series 1-6 ([2]; 100 mM NaCl inside and outside) | transport activity ([2]; 100 mM NaCl inside and outside, concentrations as low as 0.5 mol % (5 μm)) | transport activity in liposomes symmetrically loaded with sodium sulfate ([2]; 10 mol % (50 μm)) |
| --- | --- | --- | --- | --- | --- | --- | --- | --- |
| CCCCNC(=O)COc1c2cccc1Cc1cccc(c1OCC(=O)NCCCC)Cc1cccc(c1OCC(=O)NCCCC)Cc1cccc(c1OCC(=O)NCCCC)C2 [calix[4]arene tetrabutylamide 2, Calix[4]arene tetrabutylamide] | 1.5 min | 3 of 15 | did not damage the cell membrane | +120 mV | no current across the membrane |  |  |  |
| CCCCNC(=O)COc1ccccc1Cc1cccc(Cc2ccccc2OCC(=O)NCCCC)c1OCC(=O)NCCCC [trimer 3, Tris-(N-butyl-2-phenoxyacetamide)] |  |  |  |  |  | generally the most active | rapid exchange between extra- and intravesicular electrolytes | no transport activity was detected |
